Test results from patent US20210171576A1, “METHODS FOR TREATING CANCER WITH ACYLDEPSIPEPTIDE ANALOGS” (priority 2018, published 2021).
Where a SMILES comes first, the peptide text is derived from it. Bridges are numbered along the chain shown (N, C = ends). [ ]: non-standard residue; d: D form. The star is where a group is joined. Phe(3,5-F2) = N[C@@H](Cc1cc(F)cc(F)c1)C(=O)O; Pro(4R-Me) = C[C@H]1CN[C@H](C(=O)O)C1; Heptenoyl(2E) = CCCC/C=C/C(=O)*; NMeA = CN[C@@H](C)C(=O)O; X1 = CCC/C=C/C=C/C(=O)*

Assays:
[1] = test system: HEK293 cells; settings: reported (Bram et al., 2006); cited from earlier work
[2] = target: T1, HsCIpP (Homo sapiens, UniProt Q16740, P57S); test: Casein-FITC degradation by HsCIpP with HsCIpX titrated; type: biochemical; settings: HsCIpX titrated 0 to 18 μM, 3 μM HsCIpP
T1 construct: 2x(His6-thrombin)-SUMO (N, cleaved yes); made in house; host or cells: E. coli (SG1146 stated for HsClpP; 'a similar protocol' for HsClpX)
Description: The protease activity of purified HsCIpP was assessed by monitoring the degradation of bovine milk casein labelled with fluorescein isothiocyanate (casein-FITC) (Sigma-Aldrich) in the presence of ADEP and/or purified HsCIpX. All reactions were carried out in 25 mM HEPES, pH 7.5, 35 mM KCl, 25 mM MgCl2, 0.03% Tween-20, 10% glycerol, and 1 mM DTT, supplemented with 16 mM creatine phosphate and 300 μM ATP. HsCIpP was used at 3 μM (final monomeric concentration) and casein-FITC was added at the final concentration of 10 μM. 13 U of creatine phosphokinase (Sigma-Aldrich) was also added for ATP regeneration. DMSO was present at 1% (v:v) final concentration in the experiments that involve the use of ADEP analogs. All reactions were carried out with 150 μL of the reaction mix per well in a 96-well black flat-bottom plate at 37° C. Degradation of casein-FITC and subsequent release of the free FITC moiety was monitored by fluorescence with λex=494 nm and λem=518 nm using the EnSpire 2300 Multilabel Reader set to perform a reading every 40 s with 20 flashes. A total of 100 readings were collected in each experiment.
To investigate the casein-FITC degradation by HsCIpXP, kinetic analysis was performed with HsCIpP held constant at 3 μM (final monomeric concentration) and HsCIpX was titrated from 0 to 18 μM (final monomeric concentration). Initial rates (v0) were determined from data collected over three independent experiments. Non-linear regression analysis was then performed on the initial rates data using the Hill equation, as follows: […]
Vmax is maximal velocity, h is the Hill coefficient, and K0.5 is the microscopic apparent dissociation constant.

[3] = target: T1, HsCIpP; test: Peptidase activity assay (Ac-WLA-AMC cleavage) with ADEP; type: biochemical; settings: 6 μM HsCIpP, 100 μM Ac-WLA-AMC
Description: The peptidase activity of purified, untagged HsCIpP was assessed by monitoring the degradation of peptidyl substrates labelled with a C-terminal 7-amido-4-methylcoumarin (AMC) fluorophore. […] To identify a suitable peptidyl substrate, commercially available AMC-labelled peptides were purchased and tested for degradation by HsCIpP. These include N-acetyl-Trp-Leu-Ala-AMC (Ac-WLA-AMC) (R&D Systems) that was also previously used by Csizmadia et (Csizmadia et al., 2016), benzyloxycarbonyl-Arg-Arg-AMC (Z-RR-AMC) (Sigma-Aldrich), N-acetyl-Leu-Glu-His-Asp-AMC […] (Sigma-Aldrich), N-acetyl-Val-Glu-Thr-Asp-AMC (Ac-VETD-AMC) (Sigma-Aldrich), and benzyloxycarbonyl-Leu-Leu-Leu-AMC (Z-LLL-AMC) (Sigma-Aldrich). Suc-LY-AMC (MP Biomedicals) was also tested as a negative control. All stock solutions of the AMC-labelled peptides were prepared by dissolving the lyophilized peptides in DMSO at 90 mM or a lower concentration recommended by the manufacturer. […] Degradation of the peptidyl substrates and subsequent release of the free AMC moiety was monitored by fluorescence with λex=360 nm and λem=440 nm using the EnSpire 2300 Multilabel Reader (Perkin-Elmer) set to perform a reading every 30 s with 20 flashes. A total of 240 readings were collected for each of three independent replicates prepared for each peptidyl substrate. […]
Initial degradation rates data were analyzed using the Hill model. […]

[4] = target: T2, human mitochondrial CIpP (HsCIpP) (Homo sapiens, UniProt Q16740); test: Screen of ADEP analogs against HsCIpP: relative degradation (RD) index, casein-FITC degradation relative to E. coli CIpAP; type: biochemical; parameters: key: casein-FITC degradation by HsClpP relative to EcClpAP; settings: for Hs RD1: RD value at 1 μM of the ADEP analog; for Hs RD5: RD value at 5 μM of the ADEP analog; for Hs RD25: RD value at 25 μM of the ADEP analog, measure of ability to activate HsCIpP
T2 construct: made in house; host or cells: E. coli SG1146 (BL21(DE3) ΔclpP::cat)
From the text: Structural analogs of acyldepsipeptide (ADEP) (Goodreid et al., 2016) that were previously developed as potential antibiotics against bacterial CIpP were screened and assessed for their ability to activate and dysregulate the protease activity of HsCIpP, by measuring their relative degradation (RD) index. Note that ADEP-28 was also previously reported by Carney et al. (2014). Details of the experimental protocol have been described in Leung et al., 2011. The RD index is defined as follows: […]
Δφ is the change in fluorescence after 6 hr of starting the reaction measured using 485 nm excitation and 535 nm emission, which primarily detects the signal from casein-FITC. E. coli CIpAP was used as a benchmark for maximum CIpP proteolytic activity. The CIpP in the numerator can be from any other organism. RD25 measurements refer to the measurement in the presence of 25 μM compound. All ADEP analogs were first screened at 25 μM, and their RD25 scores were calculated using the above formula and method as described in Leung et al., 2011 (FIG. 1A). Those that achieved RD25≥0.87 were screened a second time at 5 μM, followed by calculation of their RD5 scores. The top analogs with RD5≥0.74 were screened a third time at 1 μM, followed by calculation of their RD1 scores (FIG. 1B).
To identify ADEP analogs that allow HsCIpP to degrade folded proteins independent of HsCIpX+ATP (i.e., that activate or dysregulate HsCIpP), the inventors employed the in vitro screening method that was used for identifying small molecule activators of Escherichia coli CIpP (EcCIpP) (Leung et al., 2011). In this approach, the ability of HsCIpP to degrade FITC-labeled casein (casein-FITC) was measured and compared to the ability of EcCIpAP to degrade casein-FITC. This is quantitatively expressed as relative degradation (RD) index (Leung et al., 2011).

T2 sequence (Q16740 57-277): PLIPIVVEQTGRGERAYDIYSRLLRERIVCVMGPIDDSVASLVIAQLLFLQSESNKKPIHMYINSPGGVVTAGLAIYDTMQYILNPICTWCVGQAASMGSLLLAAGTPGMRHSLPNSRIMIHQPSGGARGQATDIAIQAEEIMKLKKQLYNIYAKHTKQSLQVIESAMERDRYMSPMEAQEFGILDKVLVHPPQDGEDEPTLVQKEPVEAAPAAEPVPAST
T1 sequence (Q16740 57-277 P57S): as the sequence (Q16740 57-277) above, with P1S counted along it

In the case of `Cc1nc(N)nc(N)c1-c1ccc(Cl)c(Cl)c1` [Metoprine], the IC50 [1] is listed as 800 nM.

For “HsCIpX: the AAA+ ATPase HsCIpX, untagged human mitochondrial ClpX, partner of HsCIpP”, the “Hill coefficient (h)” value [2] was 1.25, the Vmax [2] was 6.88 RFU.s^−1 and the Kd ([2]; read-out: K0.5) was 5700 nM.

In the case of `N.N.[Cl][Pt][Cl]` [cisplatin], the IC50 [1] is listed as 430 nM.

For `CCC/C=C/C=C/C(=O)N[C@@H](Cc1ccccc1)C(=O)N[C@H]1COC(=O)[C@@H]2C[C@@H](C)CN2C(=O)[C@H](C)NC(=O)[C@H](C)N(C)C(=O)[C@@H]2CCCN2C1=O` [ADEP-04] (X1-FSP[NMeA]A[Pro(4R-Me)]; ester 2-C), the “Hill coefficient (h), peptidase activity” value [3] was 0.8, the “Hs RD1” value [4] was 0.32 and the “Hs RD5” value [4] was 0.78. For the same compound, the “Hs RD25” value [4] was 1.03.

For `CCCC/C=C/C(=O)N[C@@H](Cc1cc(F)cc(F)c1)C(=O)N[C@H]1COC(=O)[C@@H]2C[C@@H](C)CN2C(=O)[C@H](C)NC(=O)[C@H](C)N(C)C(=O)[C@@H]2CCCN2C1=O` [ADEP-06] ({Heptenoyl(2E)}-[Phe(3,5-F2)]SP[NMeA]A[Pro(4R-Me)]; ester 2-C), the “Hs RD1” value [4] was 0.64, the “Hs RD5” value [4] was 0.94 and the “Hs RD25” value [4] was 1.05.
